Assays:
SARS-CoV-2 Beta variant = conditions: mouse, in vivo
[1] = test system: SARS-CoV-2 variants WA1, XBB.1.5, XBB.1.16, and EG.5.1; assay: microbe, parasite or virus in culture; assay type: cell-based; conditions: Severe acute respiratory syndrome coronavirus 2, read-out: EC50 range against all viruses tested

| SMILES | IC50 for decrease in lung virus replication (SARS-CoV-2 Beta variant) [mg/kg] | SARS-CoV-2 N protein in lung (immunohistochemistry) (SARS-CoV-2 Beta variant) | mononuclear cell infiltration and respiratory epithelial cell injury in lung (SARS-CoV-2 Beta variant) | EC50 [1] [µM] | reduction in virus replication compared to the vehicle (plaque assay) (SARS-CoV-2 Beta variant) [log] | reduction in viral load compared to the ensitrelvir-treated arm (SARS-CoV-2 Beta variant) [log] | reduction in viral load compared to vehicle-treated animals (SARS-CoV-2 Beta variant) | reduction in viral titers (SARS-CoV-2 Beta variant) | viral titers after three doses, result in words (SARS-CoV-2 Beta variant) |
| --- | --- | --- | --- | --- | --- | --- | --- | --- | --- |
| C#CCn1c(C)c(-n2nnc3ccccc32)c(=O)n(-c2cncc3ccccc23)c1=O [AVI-4516] | 14.7 | minimal or no viral protein present | notably absent | – | – | – | – | – | – |
| CC(C)(C)[C@H](NC(=O)C(F)(F)F)C(=O)N1C[C@H]2[C@@H]([C@H]1C(=O)N[C@H](C#N)C[C@@H]1CCNC1=O)C2(C)C [nirmatrelvir, reference compound] | – | minimal or no viral protein present | – | 0.021 to 0.067 | 2 | – | – | – | – |
| C#CCn1c(C)c(-n2nnc3cc(F)c(F)cc32)c(=O)n(-c2cncc3ccccc23)c1=O [AVI-4773] | – | – | – | – | – | > 3 | ~ 6 log | > 1,000,000 | below detectable levels |
